Results published in PMC12884720, “Gabpα‐Pparγ Complex Determines Glycolytic Capacity and Lactic Acid Homeostasis in Brown Fat” (Advanced Science, 2025).
No end group written: not given here. *: point of attachment. FITC = O=C1OC2(c3ccc(O)cc3Oc3cc(O)ccc32)c2ccc(NC(=S)*)cc21

B2: Gabpα protein (SPR analyte) (natural protein, UniProt Q00422 1-454, looked up)
chain: MTKREAEELIEIEIDGTEKAECTEESIVEQTYTPAECVSQAIDINEPIGNLKKLLEPRLQCSLDAHEICLQDIQLDPDRSLFDQGVKTDGTVQLSVQVISYQGMEPKLNILEIVKTAETVEVVIDPDAHHAEAEAHLVEEAQVITLDGTKHITTISDETSEQVTRWAAALEGYRKEQERLGIPYDPIHWSTDQVLHWVVWVMKEFSMTDIDLTTLNISGRELCSLNQEDFFQRVPRGEILWSHLELLRKYVLASQEQQMNEIVTIDQPVQIIPASVPPATPTTIKVINSSAKAAKVQRSPRISGEDRSSPGNRTGNNGQIQLWQFLLELLTDKDARDCISWVGDEGEFKLNQPELVAQKWGQRKNKPTMNYEKLSRALRYYYDGDMICKVQGKRFVYKFVCDLKTLIGYSAAELNRLVIECEQKKLARMQLHGIAQPVTAVALAATSLQADKEI
notes: May be the Cusabio GST-Gabpα of the pull-down

Tests used:
[1] = test system: differentiated iBAT‐SVF cells; assay: Lactate levels in differentiated iBAT-SVF cells; assay type: cell-based, C57BL/6 mice; settings: GPCBi 5 µM, first 2 days of differentiation, and Enoblock 10 µM for 24 h (Figure 5o)
Protocol: (§1) Interscapular BAT‐SVF cells were obtained from eight‐week‐old male C57BL/6 mice. Briefly, BAT was excised, washed in PBS, minced, and digested at 37 °C for 40 min in Hanks solution containing type II collagenase (Sigma, Cat# C‐6885) and 4% bovine serum albumin (BSA). The tissue homogenates were filtered through a 70 µm cell strainer and centrifuged at 1000 rpm for 5 min. The cell pellet was resuspended in DMEM supplemented with 10% FBS (Sigma–Aldrich) and 1% penicillin/streptomycin (P/S) at 37 °C with 5% CO2. The next day, BAT‐SVF cells were immortalized with the SV40 large T antigen according to a published protocol.^[ [32] ^] For iBAT‐SVF cell differentiation, confluent SVF cells were induced to differentiate with medium containing 0.5 mM isobutylmethylxanthine (Sigma, Cat# I‐5879), 125 µM indomethacin (Sigma, Cat# I‐7378), 2 µg mL^−1 dexamethasone (Sigma, Cat# D‐1756), 5 µg mL^−1 insulin (Solarbio, Cat# I‐8040), 1 nM triiodo‐L‐thyronine (Sigma, Cat# T‐2877), and 1 µM rosiglitazone (Cayman, Cat# 71740‐100). After 48 h, the induction medium was replaced with a maintenance cocktail (5 µg mL^−1 insulin, 1 nM triiodo‐L‐thyronine, and 1 µM rosiglitazone) until 6 to 8 days after the induction of differentiation.
Brown fat was homogenized with lysis buffer, ultrasonographically treated on ice at 300 W (on for 3 s, off for 7 s) for 2 min, and then centrifuged at 4 °C at 12 000 × g for 10 min. […] All protocols were followed in accordance with the manufacturer's guidelines.

[2] = test system: differentiated iBAT‐SVF cells; assay: Relative mRNA and protein levels in differentiated iBAT-SVF cells; assay type: cell-based, C57BL/6 mice; settings: GPCBi 5 µM, first 2 days of differentiation, and Enoblock 10 µM for 24 h (Figure 5p)
Protocol: Interscapular BAT‐SVF cells were obtained from eight‐week‐old male C57BL/6 mice. […] The tissue homogenates were filtered through a 70 µm cell strainer and centrifuged at 1000 rpm for 5 min. The cell pellet was resuspended in DMEM supplemented with 10% FBS (Sigma–Aldrich) and 1% penicillin/streptomycin (P/S) at 37 °C with 5% CO2. The next day, BAT‐SVF cells were immortalized with the SV40 large T antigen according to a published protocol.^[ [32] ^] […] After 48 h, the induction medium was replaced with a maintenance cocktail (5 µg mL^−1 insulin, 1 nM triiodo‐L‐thyronine, and 1 µM rosiglitazone) until 6 to 8 days after the induction of differentiation.
Reverse transcription of cDNA was completed via the use of 1 µg of RNA with HiScript II Q RT SuperMix for real‐time quantitative PCR (qPCR) (Vazyme Biotech, Nanjing, China, Cat# R222) according to the provided protocols. qPCR was performed with a real‐time PCR system on a QuantStudio1 (Applied Biosystems) using Taq Pro Universal SYBR qPCR Master Mix (Vazyme Biotech., Nanjing, China, Cat# Q712‐02). Relative transcript levels were calculated via the comparative C T method; 36b4 was used as the internal control for cells, whereas Hprt was used as the internal control for tissues. The primer sequences are listed in Table S1 (Supporting Information). The mRNAs from the BAT of control and Gabpα ^Ucp1 KO mice were extracted and subjected to commercial RNA‐seq (BGI Genomics Co., Ltd.) for further DEG and KEGG pathway enrichment analysis. In detail, RNA quality was examined with Fragment (Agilent). High‐quality RNA (RIN > 8.0) was used to library construction. RNA‐seq was performed at BGI Genomics (China) using the Illumina NovaSeq 6000 platform. Clean reads were aligned to the mouse reference genome (GRCm39) using Bowtie2, and transcript quantification was performed with RSEM. […] The RNA‐seq data generated in this study have been deposited in the National Center for Biotechnology Information Sequence Read Archive database under accession code PRJNA1358056.
Cells and tissues were lysed in RIPA lysis buffer (Beyotime, Shanghai, China, Cat# P0013B) containing a protease inhibitor cocktail (MedChem Express, NJ, USA, Cat# HY‐K0010) according to the manufacturer's protocol. Equal amounts of protein were separated on SDS‒PAGE gels and transferred to PVDF membranes (Millipore). The PVDF membranes were blocked in 5% skim milk for 1 h at room temperature and then incubated with primary antibody overnight at 4 °C. The membranes were washed three times with TBST and then incubated with HRP‐conjugated secondary antibodies for 1 h at room temperature. After washing three times, the Western blots were imaged via an enhanced chemiluminescence system.

[3] = test system: Eno1 promoter; assay: Luciferase reporter assay, Eno1-Luc activated by Gabpα and Pparγ/Rxrα; assay type: cell-based, human; settings: HEK293T cells, T0070907 10 µM, n = 3 (Figure 3o)
Protocol: HEK293T cells were transfected with 100 ng of Pparγ and 100 ng of Rxrα or empty vector together with 100 ng of Gabpα plasmid or the C‐terminal truncation mutants and 200 ng of Eno1 luciferase reporter plasmid in 24‐well plates via Lipofectamine reagent (Yeasen, Shanghai, China, Cat# 40802ES03). For the experiments with the peptides GPCBi or T0070907, the additional peptides GPCBi (3 µM) or T0070907 (10 µM) were added to the HEK293T cells one day after the plasmid complex was transfected. After 48 h of transfection, luciferase activity was measured via the Dual‐Luciferase Reporter Assay System (Vazyme Biotech., Nanjing, China; Cat# DL101‐01). Firefly luciferase reporter gene measurements were normalized to Renilla luciferase activity.

[4] = test system: BAT from wild‐type mice; assay: H&E staining and Ucp1 immunostaining of BAT; assay type: in vivo, wild‐type C57BL/6J mice; settings: GPCBi 5.5 mg kg^−1 in BAT for 7 days, then sodium lactate 2 g kg^−1 d^−1 i.p. daily for 3 days following 10 °C for 2 days; Ucp1 immunostaining (Figure 5g-i)
Protocol: The mouse experiments were approved by the Institutional Animal Care and Use Committee of the Institute of Model Animals of Tongji Hospital, Huazhong University of Science and Technology, and were performed in compliance with all relevant ethical regulations (approval number: TJH‐202110044). Unless otherwise noted, the mice were housed in a pathogen‐free and climate‐controlled environment (22–25 °C, 40‐60% humidity) and were given free access to food and water on a 12 h light/dark cycle. Wild‐type C57BL/6J mice were obtained from Beijing Huafukang Bioscience Co., Ltd. (Beijing, China). Gabpa ^flox/flox , Adipoq^Cre , and Ucp1^Cre mice were purchased from Cyagen Biosciences, Inc. (Guangzhou, China). For GPCBi treatment, wild‐type mice were orthotopically injected GPCBi (FITC‐[…]; 5.5 mg kg^−1) or scramble peptide (FITC‐[…]; 5.5 mg kg^−1) into the BAT at room temperature for one week. […] For cold exposure, the mice were caged individually and exposed to a temperature of 10 or 4 °C. The mice were euthanized by CO2 inhalation. For studies with specific diets, five‐week‐old male Gabpα ^Adipo KI mice and their respective littermate control mice were fed a HFD (D12492, Research Diets; 60 kcal% fat, 20 kcal% carbohydrates, and 20 kcal% protein; Medicience Ltd., Jiangsu, China) at ambient temperature. The food was changed every week. Body weight was measured every week, and tissue weights were measured at the time of euthanasia.
For haematoxylin and eosin (H&E) staining, adipose tissues and the liver were fixed in 4% paraformaldehyde overnight at 4 °C and then dehydrated in 70% ethanol. The tissues were subsequently embedded in paraffin, sectioned at a thickness of 5 µm, and stained with H&E or immunostained with a Ucp1 antibody (Abcam, UK, Cat# ab234430, 1:500 dilution) following the standard protocol. For Oil Red O staining, frozen liver sections were stained with Oil Red O solution for 10 min and then counterstained with haematoxylin for 20 s. Images of the tissue samples were captured via an Olympus BX53 Orthomicroscope. […]

[5] = test system: iBAT‐SVF cells; assay: Immunofluorescence, nuclear localization of FITC-GPCBi in iBAT-SVF cells; assay type: cell-based, C57BL/6 mice; settings: FITC‐GPCBi 5 µM, first 2 days of adipogenic differentiation; DAPI (Figure 4d)
Protocol: as §1, with “After 48 h, the induction medium was replaced with a maintenance cocktail (5 µg mL^−1 insulin, 1 nM triiodo‐L‐thyronine, and 1 µM rosiglitazone) until 6 to 8 days after the induction of differentiation.” left out
Differentiated iBAT‐SVF cells were fixed with 4% paraformaldehyde for 20 min at room temperature and then rinsed three times with PBS. […] The cells were subsequently washed three times with PBS and incubated with a fluorescence‐conjugated secondary antibody (ABclonal, Wuhan, China, Cat# AS053; AS008, 1:200 dilution) for 1 h at room temperature. […]

[6] = biological target: B2; assay: not stated; direct binding of GPCBi to Gabpα, dose-dependent (Figure S4d); method and who was immobilised not told; settings: both partners purified
[7] = biological target: T1, Pparγ protein (SPR ligand) (UniProt P37238 1-505); assay: SPR; Biacore T200, CM5 chip; Pparγ immobilised covalently; different concentrations of Gabpα injected; 120 s association, 200 s dissociation; settings: both partners purified
T1 construct: May be the Cusabio His-Pparγ of the pull-down
T1 sequence (looked up): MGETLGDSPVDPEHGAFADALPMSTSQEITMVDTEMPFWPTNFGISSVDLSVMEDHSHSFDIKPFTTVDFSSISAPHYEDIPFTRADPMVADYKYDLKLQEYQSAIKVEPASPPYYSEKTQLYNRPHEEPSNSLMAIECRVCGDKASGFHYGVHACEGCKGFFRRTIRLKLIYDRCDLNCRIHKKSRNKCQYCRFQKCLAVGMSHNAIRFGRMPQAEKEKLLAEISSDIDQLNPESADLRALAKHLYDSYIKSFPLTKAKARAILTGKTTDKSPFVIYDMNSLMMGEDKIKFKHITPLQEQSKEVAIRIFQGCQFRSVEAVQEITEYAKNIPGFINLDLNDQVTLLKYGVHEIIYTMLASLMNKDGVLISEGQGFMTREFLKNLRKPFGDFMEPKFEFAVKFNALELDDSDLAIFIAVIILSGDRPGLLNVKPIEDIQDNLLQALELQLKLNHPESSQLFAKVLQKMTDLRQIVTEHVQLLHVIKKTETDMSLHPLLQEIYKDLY

NCCOCCOCCNC(=O)Cc1ccc(Nc2nc(NCc3ccc(F)cc3)nc(NCC3CCCCC3)n2)cc1 [Enoblock, reference compound]
GPCBi-induced reduction of lactate level in presence of Enoblock [1]: not observed | ucp1 expression when Enoblock further added to GPCBi-treated brown adipocytes [2]: no change

O=C(Nc1ccncc1)c1cc([N+](=O)[O-])ccc1Cl [T0070907, reference compound]
Eno1 promoter activity induced by Gabpα [3]: inhibited

CC(O)C(=O)[O-].[Na+] (stereo not shown) [lactate, sodium lactate, reference compound]
Ucp1 expression suppressed by GPCBi (rescue) [4]: rescued

FITC‐tagged GPCBi: FITC‐tagged GPCBi ({FITC}-YGRKKRRQRRRRRTIRLKLIYDRCDLNCRIHKKSRNK; cysteine pairing not given here)
cellular localization [5]: nuclear localization

B1: Gabpα-Pparγ complex binding inhibitor (GPCBi) (peptide)
peptide: {FITC}-YGRKKRRQRRRRRTIRLKLIYDRCDLNCRIHKKSRNK
modifications: cysteine pairing not given here
notes: the numbers fit the 505-residue Pparγ2; also called FITC-GPCBi; peptide GPCBi; source: synthetic peptide
Kd [6]: 7.03 nM

B2
Kd [7]: 5.34 nM
